Measurements: patent US20100317624A1 (ASTRAZENECA AB, priority 2009, published 2010)

Biological target: S. aureus GyrB ATPase (Staphylococcus aureus, UniProt P0A0K8)
Assay: S. aureus GyrB ATPase inhibition (ammonium molybdate/malachite green phosphate detection)
Format: biochemical
Details: compound at 1 μM; inhibition of S. aureus GyrB ATPase; read-out: Percent Inhibition (1 μM)
Experimental: S. aureus GyrB ATPase Inhibition Activity: Compounds may be tested for inhibition of S. aureus GyrB ATPase activity using an ammonium molybdate/malachite green-based phosphate detection assay (Lanzetta, P. A., L. J. Alvarez, P. S. Reinach, and O. A. Candia, 1979, 100: 95-97). Assays can be performed in multiwell plates in 30 μl reactions containing: 50 mM Hepes buffer pH 7.5, 75 mM ammonium acetate, 8.0 mM magnesium chloride, 0.5 mM ethylenediaminetetraacetic acid, 5% glycerol, 1.0 mM 1,4-Dithio-DL-threitol, 200 nM bovine serum albumin, 1.0 μg/ml sheared salmon sperm DNA, 250 pM E. coli GyrA, 250 pM S. aureus GyrB, 250 μM ATP, and compound in dimethylsulfoxide. Reactions can be quenched with 30 μl of ammonium molybdate/malachite green detection reagent containing 1.2 mM malachite green hydrochloride, 8.5 mM ammonium molybdate tetrahydrate, and 1 M hydrochloric acid. Plates can be read in an absorbance plate reader at 650 nm and percent inhibition values can be calculated using dimethylsulfoxide (2%)-containing reactions as 0% inhibition and EDTA-containing ([…]) reactions as 100% inhibition controls. An IC50 measurement of compound potency for each compound can be determined from reactions performed in the presence of 10 different compound concentrations.

S. aureus GyrB ATPase, sequence (P0AES4 whole entry): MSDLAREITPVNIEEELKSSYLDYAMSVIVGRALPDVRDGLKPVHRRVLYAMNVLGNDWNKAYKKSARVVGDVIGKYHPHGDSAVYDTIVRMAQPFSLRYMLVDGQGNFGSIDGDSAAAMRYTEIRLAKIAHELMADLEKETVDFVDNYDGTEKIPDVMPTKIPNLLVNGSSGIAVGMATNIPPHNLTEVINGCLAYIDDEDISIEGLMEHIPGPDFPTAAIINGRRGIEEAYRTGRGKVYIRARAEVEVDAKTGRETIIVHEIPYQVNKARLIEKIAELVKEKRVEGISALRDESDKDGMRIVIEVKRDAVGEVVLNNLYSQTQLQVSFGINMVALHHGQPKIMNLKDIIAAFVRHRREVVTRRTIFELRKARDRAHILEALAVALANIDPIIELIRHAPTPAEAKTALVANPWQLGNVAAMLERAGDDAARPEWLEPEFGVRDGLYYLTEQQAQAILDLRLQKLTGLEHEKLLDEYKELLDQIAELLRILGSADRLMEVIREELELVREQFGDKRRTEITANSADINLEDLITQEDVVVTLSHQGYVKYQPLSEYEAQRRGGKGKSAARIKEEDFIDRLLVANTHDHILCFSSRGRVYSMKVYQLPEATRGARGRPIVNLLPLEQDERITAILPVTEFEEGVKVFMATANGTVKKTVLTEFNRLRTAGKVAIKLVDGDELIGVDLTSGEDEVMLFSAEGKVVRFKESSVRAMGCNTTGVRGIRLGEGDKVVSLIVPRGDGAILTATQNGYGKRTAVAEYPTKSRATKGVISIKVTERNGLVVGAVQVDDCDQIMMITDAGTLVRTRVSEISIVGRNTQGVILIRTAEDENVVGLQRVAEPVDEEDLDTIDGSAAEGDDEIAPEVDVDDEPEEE
S. aureus GyrB ATPase, sequence (P0A0K8 whole entry): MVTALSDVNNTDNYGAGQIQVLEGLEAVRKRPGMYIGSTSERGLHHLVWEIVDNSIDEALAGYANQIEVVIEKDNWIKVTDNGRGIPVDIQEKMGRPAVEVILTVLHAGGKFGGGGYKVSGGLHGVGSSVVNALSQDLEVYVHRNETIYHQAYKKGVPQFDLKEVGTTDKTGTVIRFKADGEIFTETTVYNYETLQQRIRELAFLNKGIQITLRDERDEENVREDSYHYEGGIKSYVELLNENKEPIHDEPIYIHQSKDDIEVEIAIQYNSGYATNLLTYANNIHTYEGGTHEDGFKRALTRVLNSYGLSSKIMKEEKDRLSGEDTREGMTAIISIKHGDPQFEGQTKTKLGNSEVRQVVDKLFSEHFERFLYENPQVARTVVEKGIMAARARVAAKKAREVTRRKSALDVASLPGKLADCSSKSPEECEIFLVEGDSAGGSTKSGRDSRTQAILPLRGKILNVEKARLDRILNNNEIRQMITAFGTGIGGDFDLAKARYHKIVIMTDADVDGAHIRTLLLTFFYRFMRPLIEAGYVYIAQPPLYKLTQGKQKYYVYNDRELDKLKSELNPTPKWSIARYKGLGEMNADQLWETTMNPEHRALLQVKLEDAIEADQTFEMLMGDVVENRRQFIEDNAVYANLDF

| Compound | inhibition at 1 µM [%] |
| --- | --- |
| CCNC(=O)Nc1cc(-c2nc(C(F)(F)F)cs2)c(-c2ccc3c(c2)c(=O)c(C(=O)OCOC(=O)C(C)(C)C)cn3C(COC)COC)cn1 [Example 39, Pivaloyloxymethyl 1-(1,3-dimethoxypropan-2-yl)-6-(6-(3-ethylureido)-4-(4-(trifluoromethyl)thiazol-2-yl)pyridin-3-yl)-4-oxo-1,4-dihydroquinoline-3-carboxylate] | 102 |
| CCNC(=O)Nc1cc(-c2nc(C(F)(F)F)cs2)c(-c2ccc3c(c2)c(=O)c(C(=O)OCc2oc(=O)oc2C)cn3C(COC)COC)cn1 [Example 40, (5-methyl-2-oxo-1,3-dioxo1-4-yl)methyl 1-(1,3-dimethoxypropan-2-yl)-6-(6-(3-ethylureido)-4-(4-(trifluoromethyl)thiazol-2-yl)pyridin-3-yl)-4-oxo-1,4-dihydroquinoline-3-carboxylate] | 97 |
| CCNC(=O)Nc1cc(-c2nc(C(F)(F)F)cs2)c(-c2ccc3c(c2)c(=O)c(C(=O)OCCOC(C)=O)cn3C(COC)COC)cn1 [Example 41, 2-acetoxyethyl 1-(1,3-dimethoxypropan-2-yl)-6-(6-(3-ethylureido)-4-(4-(trifluoromethyl)thiazol-2-yl)pyridin-3-yl)-4-oxo-1,4-dihydroquinoline-3-carboxylate] | 107 |
| CCNC(=O)Nc1cc(-c2nc(C(F)(F)F)cs2)c(-c2ccc3c(c2)c(=O)c(C(=O)OCCOC(=O)CC)cn3C(COC)COC)cn1 [Example 42, 2-(propionyloxy)ethyl 1-(1,3-dimethoxypropan-2-yl)-6-(6-(3-ethylureido)-4-(4-(trifluoromethyl)thiazol-2-yl)pyridin-3-yl)-4-oxo-1,4-dihydroquinoline-3-carboxylate] | 104 |
| CCNC(=O)Nc1cc(-c2nc(C(F)(F)F)cs2)c(-c2ccc3c(c2)c(=O)c(C(=O)OCCOC(=O)C(C)C)cn3C(COC)COC)cn1 [Example 43, 2-(isobutyryloxy)ethyl 1-(1,3-dimethoxypropan-2-yl)-6-(6-(3-ethylureido)-4-(4-(trifluoromethyl)thiazol-2-yl)pyridin-3-yl)-4-oxo-1,4-dihydroquinoline-3-carboxylate] | 103 |
| CCNC(=O)Nc1cc(-c2nc(C(F)(F)F)cs2)c(-c2ccc3c(c2)c(=O)c(C(=O)OCCOC(=O)C(C)(C)C)cn3C(COC)COC)cn1 [Example 44, 2-(pivaloyloxy)ethyl 1-(1,3-dimethoxypropan-2-yl)-6-(6-(3-ethylureido)-4-(4-(trifluoromethyl)thiazol-2-yl)pyridin-3-yl)-4-oxo-1,4-dihydroquinoline-3-carboxylate] | 98 |
| CCNC(=O)Nc1cc(-c2nc(-c3ccccc3)cs2)c(-c2cc3c(=O)c(C(=O)O)cn(C[C@H]4CCCN4CC)c3cc2OCCN(CC)CC)cn1 [Example 45, (R)-7-(2-(diethylamino)ethoxy)-1-((1-ethylpyrrolidin-2-yl)methyl)-6-(6-(3-ethylureido)-4-(4-phenylthiazol-2-yl)pyridin-3-yl)-4-oxo-1,4-dihydroquinoline-3-carboxylic acid] | 102 |
| CCNC(=O)Nc1cc(-c2nc(-c3ccccc3)cs2)c(-c2cc3c(=O)c(C(=O)O)cn(CCN(C)C)c3cc2OCCN(CC)CC)cn1 [Example 46, 7-(2-(diethylamino)ethoxy)-1-(2-(dimethylamino)ethyl)-6-(6-(3-ethylureido)-4-(4-phenylthiazol-2-yl)pyridin-3-yl)-4-oxo-1,4-dihydroquinoline-3-carboxylic acid] | 108 |
| CCNC(=O)Nc1cc(-c2nc(C(F)(F)F)cs2)c(-c2cc3c(=O)c(C(=O)O)cn(CC)c3cc2OCCN(C)C)cn1 [Example 47, 7-(2-(dimethylamino)ethoxy)-1-ethyl-6-(6-(3-ethylureido)-4-(4-(trifluoromethyl)thiazol-2-yl)pyridin-3-yl)-4-oxo-1,4-dihydroquinoline-3-carboxylic acid] | 110 |
| CCNC(=O)Nc1cc(-c2nc(-c3ccccc3)cs2)c(-c2cc3c(=O)c(C(=O)O)cn(CCN(C)C)c3cc2OCCN2CCOCC2)cn1 [Example 48, 1-(2-(dimethylamino)ethyl)-6-(6-(3-ethylureido)-4-(4-phenylthiazol-2-yl)pyridin-3-yl)-7-(2-morpholinoethoxy)-4-oxo-1,4-dihydroquinoline-3-carboxylic acid] | 99 |
| CCNC(=O)Nc1cc(-c2nc(-c3ccccc3)cs2)c(-c2cc3c(=O)c(C(=O)O)cn(C[C@@H]4CCCN4CC)c3cc2OCCN(CC)CC)cn1 [Example 49, (S)-7-(2-(diethylamino)ethoxy)-1-((1-ethylpyrrolidin-2-yl)methyl)-6-(6-(3-ethylureido)-4-(4-phenylthiazol-2-yl)pyridin-3-yl)-4-oxo-1,4-dihydroquinoline-3-carboxylic acid] | 105 |
| CCNC(=O)Nc1cc(-c2nc(C(F)(F)F)cs2)c(-c2cc3c(=O)c(C(=O)O)cn(CCN4CCOCC4)c3cc2F)cn1 [Example 50, 6-(6-(3-ethylureido)-4-(4-(trifluoromethyl)thiazol-2-yl)pyridin-3-yl)-7-fluoro-1-(2-morpholinoethyl)-4-oxo-1,4-dihydroquinoline-3-carboxylic acid] | 106 |
| CCNC(=O)Nc1cc(-c2nc(C(F)(F)F)cs2)c(-c2cc3c(=O)c(C(=O)O)cn(CC(C)N(C)C)c3cc2F)cn1 (stereo not drawn) [Example 51, 1-(2-(dimethylamino)propyl)-6-(6-(3-ethylureido)-4-(4-(trifluoromethyl)thiazol-2-yl)pyridin-3-yl)-7-fluoro-4-oxo-1,4-dihydroquinoline-3-carboxylic acid] | 95 |
| CCNC(=O)Nc1cc(-c2nc(C(F)(F)F)cs2)c(-c2cc3c(=O)c(C(=O)O)cn([C@H](CO)CC(C)C)c3cc2F)cn1 [Example 52, (S)-6-(6-(3-ethylureido)-4-(4-(trifluoromethyl)thiazol-2-yl)pyridin-3-yl)-7-fluoro-1-(1-hydroxy-4-methylpentan-2-yl)-4-oxo-1,4-dihydroquinoline-3-carboxylic acid] | 103 |
| CCNC(=O)Nc1cc(-c2nc([C@H](N)C(C)C)cs2)c(-c2ccc3c(c2)c(=O)c(C(=O)O)cn3[C@H](CO)C(C)(C)C)cn1 [Example 53, 6-(4-(4-((R)-1-amino-2-methylpropyl)thiazol-2-yl)-6-(3-ethylureido)pyridin-3-yl)-1-((S)-1-hydroxy-3,3-dimethylbutan-2-yl)-4-oxo-1,4-dihydroquinoline-3-carboxylic acid] | 46 |
| CCNC(=O)Nc1cc(-c2nc(C(F)(F)F)cs2)c(-c2cc3c(=O)c(C(=O)O)cn(C4CC4)c3cc2Cl)cn1 [Example 54, 7-chloro-1-cyclopropyl-6-(6-(3-ethylureido)-4-(4-(trifluoromethyl)thiazol-2-yl)pyridin-3-yl)-4-oxo-1,4-dihydroquinoline-3-carboxylic acid] | 126 |
| CCNC(=O)Nc1cc(-c2nc(C(F)(F)F)cs2)c(-c2cc3c(=O)c(C(=O)O)cn(CCN(C)C)c3cc2NCCN(C)C)cn1 [Example 55, 1-(2-(dimethylamino)ethyl)-7-(2-(dimethylamino)ethylamino)-6-(6-(3-ethylureido)-4-(4-(trifluoromethyl)thiazol-2-yl)pyridin-3-yl)-4-oxo-1,4-dihydroquinoline-3-carboxylic acid] | 100 |
| CCNC(=O)Nc1cc(-c2nc(C(F)(F)F)cs2)c(-c2ccc3c(c2)c(=O)c(C(=O)O)cn3CC(C)N2CCOCC2)cn1 (stereo not drawn) [Example 56, 6-(6-(3-Ethylureido)-4-(4-(trifluoromethyl)thiazol-2-yl)pyridin-3-yl)-1-(2-morpholinopropyl)-4-oxo-1,4-dihydroquinoline-3-carboxylic acid] | 101 |
